Experimental data published in patent US20230012570A1, “BICYCLIC COMPOUND USED AS SELECTIVE ANDROGEN RECEPTOR MODULATOR” (MEDSHINE DISCOVERY INC., priority 2019, published 2023).
pIC50: −log10 of the molar value.

Target: T1, CYP3A4 (Homo sapiens, UniProt P08684)
T1 construct: Mixed human liver microsomes (HLM) were purchased from Corning Inc; tissue Corning Inc. or XenoTech, LLC. or other suppliers; host or cells: pooled human liver microsomes
Assay: Human liver microsomal CYP inhibition experiment, CYP3A4
Assay type: in vitro ADME
Description: Experiment Embodiment 4: Human Liver Microsomal CYP Inhibition Experiment
The inhibitory effects of the test compound 3A and VK5211 on the activities of human liver microsomal cytochrome P450 isozymes (CYP1A2, CYP2C9, CYP2C19, CYP2D6 and CYP3A4) were determined.
Mixed human liver microsomes (HLM) were purchased from Corning Inc. (Steuben, New York, USA) or XenoTech, LLC. (Lenexa, Kans., USA) or other suppliers, and were stored at a temperature below −60° C. before use.
First, the test compound (10.0 mM) was gradient diluted to prepare working solution (100×final concentration), and the concentrations of the working solution were: 5.00, 1.50, 0.500, 0.150, 0.0500, 0.0150, 0.00500 mM, and a working solution of each positive inhibitor of P450 isozymes (CYP1A2, CYP2C9, CYP2C19, CYP2D6, and CYP3A4) and a specific substrate mixture thereof (5 in 1) were prepared at the same time; human liver microsomes stored in a refrigerator at a temperature lower than −60° C. were put on ice to thaw, and when all the human liver microsomes were dissolved, the microsomes were diluted with potassium phosphate buffer (PB) to prepare a working solution of a certain concentration (0.253 mg/mL). […] The concentration of metabolites produced by the probe substrate in the sample was determined by liquid chromatography-tandem mass spectrometry (LC-MS/MS) method. […]

T1 sequence (P08684 whole entry): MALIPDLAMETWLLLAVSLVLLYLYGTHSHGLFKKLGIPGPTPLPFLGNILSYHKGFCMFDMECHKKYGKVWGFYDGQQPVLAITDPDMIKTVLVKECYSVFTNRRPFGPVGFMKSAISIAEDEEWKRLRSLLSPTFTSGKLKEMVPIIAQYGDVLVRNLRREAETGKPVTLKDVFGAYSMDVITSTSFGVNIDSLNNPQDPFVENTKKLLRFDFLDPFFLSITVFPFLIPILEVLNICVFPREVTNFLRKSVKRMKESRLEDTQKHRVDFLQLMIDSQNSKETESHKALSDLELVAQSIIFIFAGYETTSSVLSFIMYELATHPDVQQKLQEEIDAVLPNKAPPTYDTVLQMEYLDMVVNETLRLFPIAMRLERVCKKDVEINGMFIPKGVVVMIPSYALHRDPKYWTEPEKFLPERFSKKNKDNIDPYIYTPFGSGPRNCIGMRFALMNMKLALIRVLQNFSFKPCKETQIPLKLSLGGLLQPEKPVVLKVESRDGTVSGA

## N#Cc1ccc(N2CC3CC3C2C(O)C(F)(F)F)cc1Cl (single isomer, unassigned) [Compound 3A]
  pIC50: < 4.30
